# From patent US7683055B2, “Lanthionine-related compounds for the treatment of inflammatory diseases” (Oklahoma Medical Research Foundation, priority 2006, dated 2010)
# Experiments:
# [1] = tested on: EOC-20 microglia; assay: TNFα-stimulated nitrite production in EOC-20 microglia (Griess assay); assay type: cell-based, mouse; settings: for net suppression of nitrite: TNFα-stimulated, nitrite measured 24 h later
# Experimental: Mouse EOC-20 microglia (American Tissue Type Collection, Gaithersville Md. USA) (Hensley et al., 2003; Walker et al., 1995) were grown in DMEM containing 20% L929 fibroblast-supplemented medium. Nitrite production by cytokine stimulated microglia was measured in cell culture medium using the Griess diazotization reaction as previously reported (Hensley et al., 2003; West et al., 2004).
# The efficacy of (R)-LKE1 and (R)-LK as inhibitors of microglial cell activation in response to pro-inflammatory cytokines is shown in FIGS. 1A & 1B. EOC-20 murine microglial cells were pretreated 30 minutes with test compounds (e.g. (R)-LK or (R)-LKE1) dissolved in DMSO and diluted 1:200 into cell culture medium; or with DMSO vehicle only. Cells were then challenged with cytokine and allowed to incubate undisturbed in the cell culture incubator for 24 h prior to Griess assay. The lanthionine ketimine ester in this case is the structure shown above as (R)-LKE1. After drug treatment cells were then stimulated with 40 ng/mL recombinant murine tumor necrosis factor alpha (TNF α) plus 50U/mL interferon gamma (IFNγ). Nitrite (NO2^−) was measured in the cell culture medium 24 hours later, as an index of nitric oxide production. Cell viability was then assayed in the same cultures using a commercially available tetrazolium reduction assay (Promega OneStep™; Promega, Gaithersburg Md.). Cell culture methods were those published by the inventor (Hensley et al., 2003; West et al., 2004).
# In a EOC-20 microglial assay the cells were stimulated with TNFα in the presence or absence of 100 microM (R)- or (S)-LK, and nitrite was measured 24 h later, the net suppression of nitrite was 13% by (S)-LK and 15% by (R)-LK.
# The reduced lanthionine ketimine (i.e., TMDCA) was also tested against TNFα-stimulated nitrite production in the EOC-20 screen.
# [2] = tested on: HT4 cells; assay: glutamate toxicity in HT4 cells (LDH leakage); assay type: cell-based
# Experimental: FIG. 13. (R)-LK protects HT4 cells against excitotoxicity. Determination of cell viability: HT4 cells were seeded in 6 well plates (1×10^7 cell/well). After 24 h, cell media was changed and (R)-LK (in DMSO) was used for 1 h prior to glutamate challenge. Powdered (R)-LK was dissolved in DMSO just before use. The viability of cells in culture was assessed by measuring the leakage of lactate dehydrogenase (LDH) from cells to media 18-24 h following glutamate treatment using the in vitro toxicology assay kit from Sigma Chemical Co. (St. Louis, Mo., USA). LDH leakage was determined using the following equation: % of total LDH leaked=(LDH activity in the cell culture media/total LDH activity) where total LDH activity=LDH activity in cell monolayer+LDH activity of detached cells+LDH activity in the cell culture media.
# FIG. 14. (R)-LKE1 protects HT4 cells against excitotoxicity. […] The viability of cells in culture was assessed by measuring the leakage of lactate dehydrogenase (LDH) from cells to media 18-24 h following glutamate treatment using the in vitro toxicology assay kit from Sigma Chemical Co. (St. Louis, Mo., USA). LDH leakage was determined using the following equation: % of total LDH leaked=(LDH activity in the cell culture media/total LDH activity) where total LDH activity=LDH activity in cell monolayer+LDH activity of detached cells+LDH activity in the cell culture media. […]
# [3] = target: synaptosomal membranes; settings: read-out: affinity of binding to synaptosomal membranes; cited from earlier work
# [4] = tested on: NSC-34 cells; assay: NSC-34 viability after H2O2 challenge (tetrazolium reduction); assay type: cell-based, mouse; settings: for protection against H2O2: 0.5 mM, 6 h pretreatment, 1 mM H2O2, viability 24 h later
# Experimental: NSC-34 cells were challenged directly with H2O2 for 24 h and the viability was assessed by tetrazolium reduction assay.
# Furthermore, the invention contemplates that cytoprotection might be achieved by providing metabolic precursors to LK, rather than direct addition of the compound. For example, the inventor has studied the effects of NSC-34 cells treated with ethyl pyruvate in the presence or absence of lanthionine for 6 h prior to challenge with H2O2 and has assayed the viability of these cells 24 h later (FIG. 10). As reported in previous studies, ethyl pyruvate alone was protective against peroxide-induced cell death (Desagher et al., 1997; Nakamichi et al., 2005) with complete protection at ethyl pyruvate concentrations >1 mM (approximately 2-fold higher than ambient cell culture medium pyruvate concentrations; data not shown).
# (R)-LKE1 protects NSC-34 motoneuron x neuroblastoma hybrid cells from hydrogen peroxide toxicity (FIG. 4). Cells were treated with the indicated concentration of (R)-LKE1. Thirty minutes later cells were challenged with the indicated concentration of hydrogen peroxide. Cell viability was assayed 24 hours later by tetrazolium reduction using a commercially available kit (Promega).
# NSC-34 motor neuron-like cells, derived through the fusion of a neuroblastoma cell line with embryonic mouse motor neurons (Cashman et al., 1992), were grown in Dulbeco's modified essential medium (DMEM) plus 5% fetal bovine serum (FBS) and 1% penicillin plus 1% streptomycin (Pen/Strep). Recombinant TNFα and interferon gamma (IFNγ) were purchased from BD Biosciences (Pasadena Calif. USA). Lanthionine was purchased from Sequoia Research Products Ltd. (Pangbourne, UK). All other reagents were of the highest available commercial purity.
# NSC-34 cells were exposed to 1 mM H2O2 with or without ethyl-pyruvate and/or lantionine (LK).
compound,measurement,setting,value
lanthionine ketimine [LK],inhibition of nitrite production,[1]; TNFα-stimulated EOC-20 microglia,inhibited nitrite production
same,glutamate toxicity (LDH release),[2],significantly diminished glutamate toxicity
same,Kd,[3],50 nM
O=C(O)C1=CSC[C@H](C(=O)O)N1 [(S)-LK],net suppression of nitrite,[1]; 100 microM,13%
N[C@@H](CSC[C@H](N)C(=O)O)C(=O)O [lanthionine],protection against H2O2,[4],no protective effect
O=C(O)C1=N[C@H](C(=O)O)CSC1 [(R)-LK],net suppression of nitrite,[1]; 100 microM,15%
same,protection from H2O2-induced cell death,[4]; H2O2 challenge 24 h,protects NSC-34 motor-neuron like cells from hydrogen peroxide toxicity
"O=C(O)C1CSCC(C(=O)O)N1 (centres unmarked) [TMDCA, thiomorpholine dicarboxylic acid]",inhibition of the cytokine effect,"[1]; 100 microM, TNFα-stimulated nitrite production",about 32.5%
same,"microglial activation, % of the maximum","[1]; 100 microM, TNFα-stimulated nitrite production, +/- SD",67.5+/−3.8%
CCOC(=O)C(C)=O [ethyl pyruvate],protection against H2O2,[4],significant but partial protection
same,concentration giving complete protection against peroxide-induced cell death,[4]; data not shown,> 1 mM
